Data reported in patent US20130102081A1, “Detection and Characterization of Protein Degradation, Protein Degradation Modulation and Protein Degradation Modulators” (priority 2011, published 2013).

molecular target: T1, trypsin (Bos taurus, UniProt P00760); experiment: EMR spectroscopy of spin-labeled BSA degradation by the protease trypsin, with and without modulators; assay type: biochemical; conditions: EMR peak height versus time, compared with protease alone
T1 construct: gene PRSS1
T1 sequence (P00760 24-246): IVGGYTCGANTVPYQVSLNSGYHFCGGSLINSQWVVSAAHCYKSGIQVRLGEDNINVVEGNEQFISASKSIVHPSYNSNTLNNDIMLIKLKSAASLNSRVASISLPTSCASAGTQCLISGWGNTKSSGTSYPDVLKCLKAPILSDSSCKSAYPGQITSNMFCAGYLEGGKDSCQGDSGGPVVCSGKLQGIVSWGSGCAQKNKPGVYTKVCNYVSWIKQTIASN
Description: The spin label is attached to a protein and the control or un-degraded protein EMR spectrum recorded. Degradation of the protein by any degradation mechanism creates products with predictably different angular mobility than that of the control. […] Degradation is further characterized through quantitative analysis of the product and reactant subpopulations. Modulation of that degradation, regardless of the mechanism of modulation, can be expressed in a variety of ways, only one of which is an alteration in concentration of the degradation subpopulations. For example, inhibition of degradation is expressed by a reduction in concentration of relatively mobile subpopulation(s), degradation promotion by an increase in the mobile subpopulation. Chemical, biochemical and biological entities are readily tested for their potential as modulators.
Shown are EMR spectra of spin-labeled bovine serum albumin (BSA, spin label attached to BSA under conditions which favor attachment to a sulfhydryl). Key features of the intact protein's spectrum are denoted by the numbers 1 and 5. At 7, 21 and 40 minutes (spectra 2, 3 and 4 respectively) following the addition of the protease, trypsin, a second, more mobile, product population appears, characterized by three, relatively sharp peaks superimposed on the spectrum of the intact protein. Protein degradation is clearly expressed with products expressing more rapid angular mobility than reactants. Both reactant and product subpopulations are apparent in the spectra with the growth of the product population matched by a concomitant loss of reactants. Subpopulation spectra are amenable to further analyses in accord with practices associated with the selected observation method.
Shown are four EMR spectra (6, 7, 8, 9) for conditions identical to those in FIG. 1 of 5 with the exception that trypsin inhibitor is present. The presence and action of the modulator is clear and unambiguous.
Shown is the concentration of products, as reflected in the heights of the rightmost peaks labeled 1, 2, 3, and 4 in FIG. 1 of 5, versus time. […]

Row | Molecule | modulation of protein degradation (time course of appearance of the mobile product subpopulation)
1 | Cc1c(O)cccc1C(=O)N[C@@H](CSc1ccccc1)[C@H](O)CN1C[C@H]2CCCC[C@H]2C[C@H]1C(=O)NC(C)(C)C [Nelfinavir] | promotion of degradation
2 | CC(C)C[C@H](NC(=O)[C@@H](NC(=O)N[C@@H](Cc1ccccc1)C(=O)O)[C@@H]1CCN=C(N)N1)C(=O)N[C@H](C=O)Cc1ccccc1 [chymostatin] | Modulation of protein degradation is clear
3 | leupeptin hemisulfate | Modulation of protein degradation is clear
